Several values for one entry are separate records, joined by “and”; a condition that tells them apart may be missing. Equal entries are not always repeated.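 Method: 48-hour compound exposure of cells in 96-well plates, five concentrations, linear interpolation of endpoints. Here, GI50 denotes the concentration required for 50% inhibition of growth. At the TGI there is no net growth.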
Experiments:
Experiment in all cases: inhibition of tumour cell growth, NCI panel, 48 h
[1] = system: A498 renal
[2] = system: ACHN renal
[3] = system: CCRF-CEM leukemia
[4] = system: EKVX NSCLC
[5] = system: KM12 colon
[6] = system: MDA-MB-435
[7] = system: MOLT-4 leukemia
[8] = system: NCI-H23 lung
[9] = system: PC-3 prostate
[10] = system: SK-OV-3 ovarian

| Structure (SMILES) | TGI [1] | TGI [2] | TGI [3] | TGI [4] | TGI [5] | TGI [6] | TGI [7] | TGI [8] | TGI [9] | TGI [10] | GI50 [1] | GI50 [2] | GI50 [3] | GI50 [5] | GI50 [6] | GI50 [7] | GI50 [9] | GI50 [10] | GI50 [4] | GI50 [8] |
| --- | --- | --- | --- | --- | --- | --- | --- | --- | --- | --- | --- | --- | --- | --- | --- | --- | --- | --- | --- | --- |
| [N-]=[N+]=CC(=O)COC(=O)c1ccccc1 | > 100 µM | > 100 µM | > 100 µM | > 100 µM | > 100 µM | > 100 µM | > 100 µM | > 100 µM | > 100 µM | > 100 µM |  |  |  |  |  |  |  |  |  |  |
| C[C@]12CC[C@H]3[C@@H](CC[C@]4(O)C[C@@H](O)CC[C@]34CO)[C@@]1(O)CC[C@@H]2C1=CC(=O)OC1 | 5.1 µM | 7.08 µM | > 36.7 µM | 3.49 µM | 17 µM | 9.45 µM | 0.726 µM | 4.98 µM | 10.5 µM | 6.72 µM |  |  |  |  |  |  |  |  |  |  |
| Nc1nc(N)nc(CC(=O)O)n1 | > 100 µM | > 100 µM | > 100 µM | > 100 µM | > 100 µM | > 100 µM | > 100 µM | > 100 µM | > 100 µM | > 100 µM |  |  |  |  |  |  |  |  |  |  |
| COc1cc2c(c(OC)c1OC)-c1ccc(O)c(=O)cc1[C@@H](NC(C)=O)CC2 | > 100 µM and 44.1 µM | > 100 µM and 44.5 µM | > 100 µM | > 100 µM | > 100 µM and 32.8 µM | > 100 µM and 47.4 µM | 45.8 µM and 34.2 µM | 39.5 µM | > 100 µM | > 100 µM | 15 µM | 5.61 µM | 3.67 µM | 8.68 µM | 14.3 µM | 4.66 µM | 15.1 µM | 11 µM |  |  |
| CN(C)CCCc1c2ccccc2nc2ccc(Cl)cc12 | 34.2 µM | 33.6 µM | 35.8 µM | 35.1 µM | 32.5 µM | 26.6 µM | 44.5 µM | 84.8 µM | 37 µM | 41.7 µM |  |  |  |  |  |  |  |  |  |  |
| CCC[CH2][Sn]1([CH2]CCC)[O]C(=O)c2ccc(N)cc2[O]1 | 0.763 µM | 1.92 µM | 1.85 µM | 2.47 µM | 2.59 µM | 3.08 µM | 2.43 µM | 1.61 µM | 2.23 µM | 2.92 µM | 0.278 µM | 0.655 µM | 0.0357 µM | 1.24 µM | 1.58 µM | 0.254 µM | 0.985 µM | 1.34 µM | 0.285 µM | 0.336 µM |
| O=C(N/N=C/c1ccc(Cl)cc1)c1[nH]c2ccc(Cl)cc2c1-c1ccccc1 | > 100 µM | > 45.3 µM |  | > 100 µM | 0.568 µM | 0.72 µM | > 32 µM | 35.5 µM | 44.8 µM |  | 15.4 µM | 0.199 µM | 0.0986 µM | 0.181 µM | 0.245 µM | 0.108 µM | 0.2 µM | 0.387 µM | 0.317 µM | 0.328 µM |
| Oc1c(Cl)cc(Cl)cc1Sc1cc(Cl)cc(Cl)c1O | 5.52 µM and 5.19 µM | 10.7 µM and 11.3 µM | 23.4 µM and 25 µM | 14.1 µM and 9.1 µM | 10.7 µM and 10.5 µM | 12.4 µM and 9 µM | 11.7 µM and 13.1 µM | 10.8 µM and 7.76 µM | 10.5 µM and 12.9 µM | 7.04 µM | 1.81 µM and 1.87 µM | 2.92 µM and 3.27 µM | 4.32 µM and 2.83 µM | 3.54 µM and 2.93 µM | 3.42 µM and 2.72 µM | 3.8 µM and 2.55 µM | 3.21 µM and 2.89 µM | 2.66 µM | 3.8 µM and 2.51 µM | 2.56 µM and 2.34 µM |
| C/C(=N\NC(=S)N1CCN(c2ccccn2)CC1)c1nccs1 | 17.4 µM | 9.96 µM | 0.256 µM | 10.6 µM | 18.9 µM | 12.8 µM | 22.3 µM | 13.8 µM | 17.4 µM | 18.3 µM |  |  | 0.00596 µM |  |  | 0.00504 µM | 0.525 µM |  | 0.0334 µM | 0.0643 µM |
| CCCCCCNC(=O)Oc1ccc(/C(=C(/C)Cc2ccc(OC)cc2)c2ccc(OCCN(C)C)cc2)cc1 | 9.92 µM | 9.99 µM | 5.37 µM | 10.1 µM | 10.1 µM | 9.17 µM | 11.5 µM | 10.5 µM | 5.96 µM | 9.5 µM | 5.34 µM | 5.43 µM | 1.35 µM | 4.98 µM | 4.62 µM | 5.23 µM | 1.66 µM | 4.99 µM | 4.91 µM | 5.28 µM |
| COc1ccc(NC(=O)n2nc(/C=C\c3ccc(O)c(OC)c3)cc2/C=C\c2ccc(O)c(OC)c2)cc1 | 56.4 µM | > 100 µM | 32.7 µM | 83.7 µM | 20.7 µM | 4.68 µM | 13.3 µM | 63.8 µM | > 100 µM | 27.5 µM | 17.2 µM | 4.18 µM | 2.34 µM | 3.19 µM | 1.25 µM | 2.87 µM | 5.11 µM | 3.66 µM | 6.62 µM | 3.81 µM |
| C[C@]12CC[C@@H](OC(=O)N(CCCl)N=O)C[C@@H]1CC[C@@H]1[C@@H]2CC[C@]2(C)C(=O)CC[C@@H]12 | 4.29 µM | 13.8 µM | > 100 µM | > 43.7 µM | 16.3 µM | 44.1 µM | > 57.7 µM | 67.2 µM | > 96 µM | 14.3 µM | 1.68 µM | 0.487 µM | 14.2 µM | 2.81 µM | 10.6 µM |  | 11.5 µM | 3.43 µM | 6.5 µM | 15.3 µM |
| N=c1ccc2nc3c(cc(N)c4ccccc43)oc-2c1 | 0.78 µM | 1.44 µM | 3.28 µM | 1.09 µM | 0.845 µM | 0.338 µM | 1.05 µM | 0.523 µM | 1.71 µM | 1.73 µM |  | 0.325 µM | 0.546 µM | 0.236 µM | 0.182 µM | 0.287 µM | 0.217 µM | 0.477 µM | 0.174 µM | 0.179 µM |
| Cc1ccc2sc3ccc(N)cc3c(=O)c2c1 | > 100 µM | > 100 µM | > 100 µM | > 100 µM | > 100 µM | > 100 µM | > 100 µM | > 100 µM | > 100 µM | > 100 µM |  |  |  |  |  |  |  |  |  |  |

Reference: PubChem BioAssay (NCI)
